Experiments:
[1] = Compatibility: degradation products of aspirin/carbonate blends by HPLC; type: physicochemical
Experimental: The degradation products of various combinations of aspirin and various carbonates were determined for different combinations of aspirin and different grades and sources of carbonates to evaluate the compatibility and stability. Milling for about fifteen minutes appeared to slightly induce the production of free salicylic acid (FSA), but not to a significant extent. […] The results are shown in Table 3 (all blend percentages are weight percentages obtained using High Performance Liquid Chromatography (HPLC))

[2] = Particle size of milled aspirin by laser diffraction (MS 2000 Hydro S); type: physicochemical
Experimental: Several techniques were evaluated to determine the preferred type of milling techniques for use with aspirin in accordance with the invention. All sizes were determined using Laser Diffraction on a model MS 2000 Hydro S machine. The “d50” value is the average particle size of the milled sample, and “d90” represents the average particle size of at least 90% of the particles in the milled sample. Airjet, bead, and ball mill techniques were selected as being the most preferred in the invention because of the reliability of the techniques and the particle sizes obtained. Bead milling is less preferred because of its higher relative cost. The precipitation method and crystal synthesis also yielded small particle sizes but particles prepared using these techniques tended to agglomerate.

[3] = Air Jet Mill using helium as gas jet

| Acetyl Salicylic Salicylic Acid ASSA (%) [1] [%] | FSA (%) (free salicylic acid) [1] | Particle size of the milled aspirin, d90 ([2]; Air Jet Mill) [μm] | Particle size of the milled aspirin, d50 [2, 3] [μm] | Particle size of the milled aspirin, d90 [2, 3] [μm] | Particle size of the milled aspirin, d50 ([2]; Crystal Synthesis, no agglomeration) | Particle size of the milled aspirin, d50 ([2]; High energy Ball Mill) | Particle size of the milled aspirin, d50 ([2]; Planetary Ball Mill) | Particle size of the milled aspirin, d50 ([2]; Precipitation Method (Solution: Ethanol + 20% ASA with 10% PVP)) | SMILES | Particle size of the milled aspirin, d50 ([2]; Crystal Synthesis, with agglomeration of milled particles) |
| --- | --- | --- | --- | --- | --- | --- | --- | --- | --- | --- |
| 0.00 | 0.00 |  |  |  |  |  |  |  | CC(=O)Oc1ccccc1C(=O)O [100% Aspirin-Milled 15 min] |  |
|  |  | < 10 | < 2.6 | < 6.6 | d50~30 μm and no agglomeration | d50~30-40 μm | d50~40 μm | d50~5 μm | CC(=O)Oc1ccccc1C(=O)O [aspirin] | d50~5 to 10 μm, with agglomeration of milled particles |

— US20130122098A1, “Method and composition to improve absorption of therapeutic agents” (Bayer HealthCare LLC, priority 2011, published 2013)
